Data from patent US11186533B2, “Chalcone compound and preparation method thereof” (SOUTH CHINA BOTANICAL GARDEN, CHINESE ACADEMY OF SCIENCES, priority 2018, dated 2021).

Experiments:
[1] = DPPH radical scavenging assay; conditions: 0.2 mM DPPH in absolute ethanol, dark, room temperature, 30 minutes, absorbance at 517 nm; read-out: IC50 value against DPPH radicals
Experimental: DPPH is a stable free radical. When a free radical scavenger is present, light absorption of DPPH will be reduced when the single electron is scavenged, which allows to evaluate free radical scavenging ability of the substance and accordingly determine antioxidant ability thereof. The DPPH radical scavenging ability of the compound 2,2′,4,4′-tetrahydroxy-3-(2″-hydroxy-3″-methylbutyl-3″-alkenyl)chalcone was measured through the DPPH radical scavenging assay, so as to evaluate the antioxidant ability of the compound. The assay comprised the following steps:
1,1-Diphenyl-2-picrylhydrazyl (DPPH) was dissolved in absolute ethanol to obtain a solution with a concentration of 0.2 mM. The compound 2,2′,4,4′-tetrahydroxy-3-(2″-hydroxy-3″-methylbutyl-3″-alkenyl)chalcone was dissolved in absolute ethanol. 80 μL of the ethanol solution of 2,2′,4,4′-tetrahydroxy-3-(2″-hydroxy-3″-methylbutyl-3″-alkenyl)chalcone and 160 μL of the 0.2 mM DPPH ethanol solution were mixed and the mixture was placed in dark at room temperature for 30 minutes. Then, light absorbance at 517 nm was measured using a microplate reader (SpectraMax 190, Molecular Devices, USA).

[2] = Solubility in methanol; type: physicochemical

Question: With `C=C(C)C(O)Cc1c(O)ccc(C(=O)/C=C/c2ccc(O)cc2O)c1O` (centres unmarked) [compound 1, 2,2′,4,4′-tetrahydroxy-3-(2″-hydroxy-3″-methylbutyl-3″-alkenyl)chalcone] as the molecule, how does the IC50 [1] read?
Answer: The IC50 was 21.6 µM.

Question: What about the solubility in methanol [2] of the same molecule?
Answer: The solubility in methanol was “easily soluble in methanol”.
